Reference: US20070293510A1, “Thiadiazole compounds and use thereof” (Sumitomo Chemical company, Limited ( a Japanese corporation), priority 2002, published 2007)

These compounds were tested on cotton aphids (Aphis gossypii) (assay: Test Example: cotton aphid control on cucumber plants, spray of diluted formulation). Settings: formulation per Formulation Example 5 diluted with water to 500 ppm active ingredient; sprayed 20 ml/cup on cucumber plants with about 20 cotton aphids; counted on the 6th day after application.
Format: in vivo
Procedure: Each formulation of the present compound (1), (3), (4), (6), (7), (8), (12), (13), (14), (15), (16), (17), (18), (19), (20), (21), (22), (23), (24), (25), (26), (28), (30), (31), (33), (34), (35), (36), (37), (38), (42), (43) and (44) obtained according to the Formulation Example 5 was diluted with water so that the active ingredient concentration came to 500 ppm to prepare a diluting liquid. The seeds of cucumber were planted in polyethylene cups and grown until their first foliage leaves developed, on which about 20 cotton aphids (Aphis gossypii) were made parasitic. After one day, the diluting liquid was sprayed at the rate of 20 ml/cup onto the cucumber plants. On the 6th day after the application, the number of cotton aphids was examined. As a result, the numbers of the living cotton aphids were three or less.

Question: `CSc1nsc(OCc2ccccc2)n1` [present compound (1), 5-benzyloxy-3-methylthio-1,2,4-thiadiazole] was tested. Which “numbers of the living cotton aphids” value did it give?
Answer: three or less

Question: `CSc1nsc(OCc2cccc(Cl)c2)n1` [present compound (3), 5-(3-chlorobenzyloxy)-3-methylthio-1,2,4-thiadiazole] was tested. Which “numbers of the living cotton aphids” value did it give?
Answer: three or less

Question: Which “numbers of the living cotton aphids” value does the source give for `CSc1nsc(OCc2ccc(Cl)cc2)n1` [present compound (4), 5-(4-chlorobenzyloxy)-3-methylthio-1,2,4-thiadiazole] here?
Answer: three or less

Question: Which “numbers of the living cotton aphids” value does the source give for `CSc1nsc(OCc2cccc(C(F)(F)F)c2)n1` [present compound (6), 5-(3-trifluoromethylbenzyloxy)-3-methylthio-1,2,4-thiadiazole] here?
Answer: three or less

Question: For `CSc1nsc(OCc2ccc(C(F)(F)F)cc2)n1` [present compound (7), 5-(4-trifluoromethylbenzyloxy)-3-methylthio-1,2,4-thiadiazole], which “numbers of the living cotton aphids” value is on record?
Answer: three or less

Question: With `CSc1nsc(OCc2ccc(C)cc2)n1` [present compound (8), 5-(4-methylbenzyloxy)-3-methylthio-1,2,4-thiadiazole] as the compound, how does the “numbers of the living cotton aphids” value read?
Answer: three or less

Question: Which “numbers of the living cotton aphids” value does the source give for `CSc1nsc(OCc2ccc(F)cc2)n1` [present compound (12), 5-(4-fluorobenzyloxy)-3-methylthio-1,2,4-thiadiazole] here?
Answer: three or less

Question: How did the “numbers of the living cotton aphids” value turn out when `CSc1nsc(OCc2ccc(Br)cc2)n1` [present compound (13), 5-(4-bromobenzyloxy)-3-methylthio-1,2,4-thiadiazole] was run?
Answer: three or less

Question: With `CSc1nsc(OCc2ccc(I)cc2)n1` [present compound (14), 5-(4-iodobenzyloxy)-3-methylthio-1,2,4-thiadiazole] as the compound, how does the “numbers of the living cotton aphids” value read?
Answer: three or less

Question: For `CSc1nsc(OCc2ccc(OC(F)(F)F)cc2)n1` [present compound (15), 5-(4-trifluoromethoxybenzyloxy)-3-methylthio-1,2,4-thiadiazole], which “numbers of the living cotton aphids” value is on record?
Answer: three or less

Question: How did the “numbers of the living cotton aphids” value turn out when `CSc1nsc(OCc2c(F)cccc2F)n1` [present compound (16), 5-(2,6-difluorobenzyloxy)-3-methylthio-1,2,4-thiadiazole] was run?
Answer: three or less

Question: How did the “numbers of the living cotton aphids” value turn out when `CSc1nsc(OCc2cc(F)cc(F)c2)n1` [present compound (17), 5-(3,5-difluorobenzyloxy)-3-methylthio-1,2,4-thiadiazole] was run?
Answer: three or less

Question: How did the “numbers of the living cotton aphids” value turn out when `CSc1nsc(OCc2ccc(Cl)c(Cl)c2)n1` [present compound (18), 5-(3,4-dichlorobenzyloxy)-3-methylthio-1,2,4-thiadiazole] was run?
Answer: three or less

Question: With `CSc1nsc(OCc2ccccn2)n1` [present compound (19), 5-(2-pyridylmethyloxy)-3-methylthio-1,2,4-thiadiazole] as the compound, how does the “numbers of the living cotton aphids” value read?
Answer: three or less

Question: `CSc1nsc(OCc2ccc(Cl)nc2)n1` [present compound (21), 5-(6-chloro-3-pyridyl)methyloxy-3-methylthio-1,2,4-thiadiazole] was tested. Which “numbers of the living cotton aphids” value did it give?
Answer: three or less

Question: For `CSc1nsc(OC(C)c2ccccc2)n1` (centres unmarked) [present compound (22), 5-(1-phenylethoxy)-3-methylthio-1,2,4-thiadiazole], which “numbers of the living cotton aphids” value is on record?
Answer: three or less

Question: How did the “numbers of the living cotton aphids” value turn out when `CSc1nsc(OCCc2ccccc2)n1` [present compound (23), 5-(2-phenylethoxy)-3-methylthio-1,2,4-thiadiazole] was run?
Answer: three or less

Question: Which “numbers of the living cotton aphids” value does the source give for `CSc1nsc(OCCc2ccccn2)n1` [present compound (24), 5-(2-pyridyl-2-ethyloxy)-3-methylthio-1,2,4-thiadiazole] here?
Answer: three or less

Question: How did the “numbers of the living cotton aphids” value turn out when `CSc1nsc(OCCCc2ccccc2)n1` [present compound (25), 5-(3-phenylpropyloxy)-3-methylthio-1,2,4-thiadiazole] was run?
Answer: three or less

Question: How did the “numbers of the living cotton aphids” value turn out when `CSc1nsc(OCc2cccc([N+](=O)[O-])c2)n1` [present compound (26), 5-(3-nitrobenzyloxy)-3-methylthio-1,2,4-thiadiazole] was run?
Answer: three or less

Question: How did the “numbers of the living cotton aphids” value turn out when `CSc1nsc(OCc2cc(Cl)cc(Cl)c2)n1` [present compound (28), 5-(3,5-dichlorobenzyloxy)-3-methylthio-1,2,4-thiadiazole] was run?
Answer: three or less

Question: With `C=CCSc1nsc(OCc2ccccc2)n1` [present compound (30), 5-benzyloxy-3-allylthio-1,2,4-thiadiazole] as the compound, how does the “numbers of the living cotton aphids” value read?
Answer: three or less

Question: How did the “numbers of the living cotton aphids” value turn out when `c1ccc(COc2nc(SCc3ccccc3)ns2)cc1` [present compound (31), 5-benzyloxy-3-benzylthio-1,2,4-thiadiazole] was run?
Answer: three or less

Question: `COc1ccc(CSc2nsc(OCc3ccccc3)n2)cc1` [present compound (33), 5-benzyloxy-3-(4-methoxybenzyl)thio-1,2,4-thiadiazole] was tested. Which “numbers of the living cotton aphids” value did it give?
Answer: three or less

Question: How did the “numbers of the living cotton aphids” value turn out when `CSc1nsc(OCc2ccncc2)n1` [present compound (34), 5-(4-pyridylmethyloxy)-3-methylthio-1,2,4-thiadiazole] was run?
Answer: three or less

Question: For `CSc1nsc(OCc2cccc(Cl)n2)n1` [present compound (35), 5-(6-chloro-2-pyridylmethyloxy)-3-methylthio-1,2,4-thiadiazole], which “numbers of the living cotton aphids” value is on record?
Answer: three or less

Question: Which “numbers of the living cotton aphids” value does the source give for `CSc1nsc(OCc2ncccn2)n1` [present compound (36), 5-(2-pyrimidylmethyloxy)-3-methylthio-1,2,4-thiadiazole] here?
Answer: three or less

Question: For `CSc1nsc(OCc2cncnc2)n1` [present compound (37), 5-(5-pyrimidylmethyloxy)-3-methylthio-1,2,4-thiadiazole], which “numbers of the living cotton aphids” value is on record?
Answer: three or less

Question: `c1ccc(CSc2nsc(OCc3cncnc3)n2)cc1` [present compound (38), 5-(5-pyrimidylmethyloxy)-3-benzylthio-1,2,4-thiadiazole] was tested. Which “numbers of the living cotton aphids” value did it give?
Answer: three or less

Question: How did the “numbers of the living cotton aphids” value turn out when `CCOCSc1nsc(OCc2ccccc2)n1` [present compound (42), 5-benzylloxy-3-ethoxymethylthio-1,2,4-thiadiazole] was run?
Answer: three or less

Question: With `c1ccc(COCSc2nsc(OCc3ccccc3)n2)cc1` [present compound (43), 5-bezyloxy-3-benzyloxymethylhio-1,2,4-thiadiazole] as the compound, how does the “numbers of the living cotton aphids” value read?
Answer: three or less

Question: Which “numbers of the living cotton aphids” value does the source give for `CC(=O)OCSc1nsc(OCc2ccccc2)n1` [present compound (44), 5-bezyloxy-3-acetoxymethylhio-1,2,4-thiadiazole] here?
Answer: three or less
